Laboratory results as given in patent US9895349B2, “N-phenyl-carboxamide derivatives and the use thereof as medicaments for the treatment of hepatitis B” (priority 2013, dated 2018).

Experiments:
[1] = tested on: HepG2 cells; experiment: Cytotoxicity in HepG2 cells, Resazurin assay; conditions: read-out: HepG2 4 days CC50, 4 days incubation, Resazurin viability
[2] = tested on: HBV; experiment: Anti-HBV activity, HepG2.117 inducibly HBV producing cell line (Tet-off), intracellular HBV DNA by realtime PCR; assay type: cell-based, Hepatitis B virus (HBV); conditions: HepG2.117 cells, 3 days of treatment
[3] = tested on: HBV; experiment: Anti-HBV activity, HepG2.2.15 stable transfected cell line, HBV DNA from secreted virions by realtime PCR; assay type: cell-based, Hepatitis B virus (HBV); conditions: HepG2.2.15 cells, 6 days of treatment
[4] = Cytotoxicity in HepG2 cells, Resazurin assay; conditions: human
[5] = Hepatitis B virus, HepG2.117, 72 h
[6] = Hepatitis B virus, HepG2.2.15, 144 h

Row | Structure (SMILES) | CC50 [1] [nM] | EC50 [2] [nM] | EC50 [3] [nM] | CC50 at 4 days [4] [nM] | EC50 [2, 5] [nM] | EC50 [3, 6] [nM]
1 | Cc1cc(NC(=O)C2CCN(S(=O)(=O)C3CCOC3)C2)ccc1F (mixture of isomers) [Compound 12] | > 25000 | 2300 | 4100 |  |  | 
2 | Cc1cc(NC(=O)C2CCN(S(=O)(=O)C3CCS(=O)(=O)C3)C2)ccc1F (mixture of isomers) [Compound 13] | > 25000 | 3400 | 4600 |  |  | 
3 | Cc1cc(NC(=O)C2CCN(S(=O)(=O)C3CS(=O)(=O)CC3O)C2)ccc1F (mixture of isomers) [Compound 15] | > 25000 | 14700 | 12500 |  |  | 
4 | CCC1CC1S(=O)(=O)N1CC[C@H](C(=O)Nc2ccc(F)c(C)c2)C1 (stereo partly drawn) [Compound 24, (3S)-1-(2-ethylcyclopropyl)sulfonyl-N-(4-fluoro-3-methyl-phenyl)pyrrolidine-3-carboxamide] |  |  |  | > 25000 | 330 | 500
5 | CCC(C)S(=O)(=O)N1CC[C@H](C(=O)Nc2ccc(F)c(C)c2)C1 (stereo partly drawn) [Compound 25, (3S)—N-(4-fluoro-3-methyl-phenyl)-1-sec-butylsulfonyl-pyrrolidine-3-carboxamide] |  |  |  | > 25000 | 430 | 5500
6 | Cc1cc(NC(=O)[C@H]2CCN(C(=O)OCC(C)C)C2)ccc1F [Compound 26, isobutyl (3S)-3-[(4-fluoro-3-methyl-phenyl)carbamoyl]pyrrolidine-1-carboxylate] |  |  |  | > 25000 | 410 | 4400
7 | Cc1cc(NC(=O)[C@@]23C[C@@H]2CN(S(=O)(=O)CC(C)C)C3)ccc1F [Compound 27, (1S,5S)—N-(4-fluoro-3-methyl-phenyl)-3-isobutylsulfonyl-3-azabicyclo[3.1.0]hexane-1-carboxamide] |  |  |  | > 25000 | 2000 | 2800
8 | Cc1cc(NC(=O)C2CN(S(=O)(=O)CC(C)C)c3ccccc32)ccc1F (stereo not drawn) [Compound 28, N-(4-fluoro-3-methyl-phenyl)-1-isobutylsulfonyl-indoline-3-carboxamide] |  |  |  | > 25000 | 3900 | 2000
9 | Cc1cc(NC(=O)[C@H]2CCN(S(=O)(=O)NCC(C)C)C2)ccc1F [Compound 31, (3S)—N-(4-fluoro-3-methyl-phenyl)-1-(isobutylsulfamoyl)pyrrolidine-3-carboxamide] |  |  |  | > 25000 | 470 | 450
10 | Cc1cc(NC(=O)[C@H]2CCN(S(=O)(=O)NC(C)C)C2)ccc1F [Compound 32, (3S)—N-(4-fluoro-3-methyl-phenyl)-1-(isopropylsulfamoyl)pyrrolidine-3-carboxamide] |  |  |  | > 25000 | 120 | 180
11 | Cc1cc(NC(=O)[C@H]2CCN(S(=O)(=O)N[C@H]3CCOC3)C2)ccc1F [Compound 33, (3S)—N-(4-fluoro-3-methyl-phenyl)-1-[[(3S)-tetrahydrofuran-3-yl]sulfamoyl]pyrrolidine-3-carboxamide] |  |  |  | > 25000 | 75 | 150
12 | Cc1cc(NC(=O)[C@H]2CCN(S(=O)(=O)NC3(C)COC3)C2)ccc1F [Compound 34, (3S)—N-(4-fluoro-3-methyl-phenyl)-1-[(3-methyloxetan-3-yl)sulfamoyl]pyrrolidine-3-carboxamide] |  |  |  | > 25000 | 110 | 110
13 | Cc1cc(NC(=O)[C@H]2CCN(S(=O)(=O)N[C@@H]3c4ccccc4C[C@H]3O)C2)ccc1F [Compound 37, (3S)—N-(4-fluoro-3-methyl-phenyl)-1-[[(1R,2R)-2-hydroxyindan-1-yl]sulfamoyl]pyrrolidine-3-carboxamide] |  |  |  | > 25000 | 530 | 270
14 | Cc1cc(NC(=O)[C@H]2CCN(S(=O)(=O)NC(C)CNC(=O)OC(C)(C)C)C2)ccc1F (stereo partly drawn) [Compound 38, tert-butyl N-[2-[[(3S)-3-[(4-fluoro-3-methyl-phenyl)carbamoyl]pyrrolidin-1-yl]sulfonylamino]propyl]carbamate] |  |  |  | > 25000 | 2070 | 3650
15 | Cc1cc(NC(=O)[C@H]2CCN(S(=O)(=O)NC(C)CC#N)C2)ccc1F (stereo partly drawn) [Compound 40, (3S)-1-[(2-cyano-1-methyl-ethyl)sulfamoyl]-N-(4-fluoro-3-methyl-phenyl)pyrrolidine-3-carboxamide] |  |  |  | > 25000 | 120 | 290
16 | Cc1cc(NC(=O)C23CC2CN(S(=O)(=O)N[C@H]2CCOC2)C3)ccc1F (stereo partly drawn) [Compound 43, N-(4-fluoro-3-methyl-phenyl)-3-[[(3S)-tetrahydrofuran-3-yl]sulfamoyl]-3-azabicyclo[3.1.0]hexane-1-carboxamide] |  |  |  | > 25000 | 850 | 580
17 | CC1(NS(=O)(=O)N2CC[C@H](C(=O)Nc3ccc(F)c(F)c3)C2)COC1 [Compound 44, (3S)—N-(3,4-difluorophenyl)-1-[(3-methyloxetan-3-yl)sulfamoyl]pyrrolidine-3-carboxamide] |  |  |  | > 25000 | 420 | 610
18 | CC[C@@H](C)NS(=O)(=O)N1CC[C@H](C(=O)Nc2ccc(F)c(F)c2)C1 [Compound 45, (3S)—N-(3,4-difluorophenyl)-1-[[(1R)-1-methylpropyl]sulfamoyl]pyrrolidine-3-carboxamide] |  |  |  | > 25000 | 540 | 3250
19 | O=C(Nc1ccc(F)c(F)c1)[C@H]1CCN(S(=O)(=O)N[C@H]2CCOC2)C1 [Compound 46, (3S)—N-(3,4-difluorophenyl)-1-[[(3S)-tetrahydrofuran-3-yl]sulfamoyl]pyrrolidine-3-carboxamide] |  |  |  | > 25000 | 240 | 600
20 | Cc1cc(NC(=O)[C@H]2CCN(S(=O)(=O)NC3(CCO)COC3)C2)ccc1F [Compound 47, (3S)—N-(4-fluoro-3-methyl-phenyl)-1-[[3-(2-hydroxyethyl)oxetan-3-yl]sulfamoyl]pyrrolidine-3-carboxamide] |  |  |  | > 25000 | 91 | 65
21 | Cc1cc(NC(=O)[C@H]2CCN(S(=O)(=O)NC3CCN(C)C3=O)C2)ccc1F (stereo partly drawn) [Compound 48, (3S)—N-(4-fluoro-3-methyl-phenyl)-1-[(1-methyl-2-oxo-pyrrolidin-3-yl)sulfamoyl]pyrrolidine-3-carboxamide] |  |  |  | > 25000 | 570 | 1370
22 | Cc1cc(NC(=O)[C@H]2CCN(S(=O)(=O)N3CC4(COC4)C3)C2)ccc1F [Compound 49, (3S)—N-(4-fluoro-3-methyl-phenyl)-1-(6-oxa-2-azaspiro[3.3]heptan-2-ylsulfonyl)pyrrolidine-3-carboxamide] |  |  |  | > 25000 | 950 | 1490
23 | Cc1cc(NC(=O)[C@H]2CCN(S(=O)(=O)NC3CC(=O)N(C)C3)C2)ccc1F (stereo partly drawn) [Compound 50, (3S)—N-(4-fluoro-3-methyl-phenyl)-1-[(1-methyl-5-oxo-pyrrolidin-3-yl)sulfamoyl]pyrrolidine-3-carboxamide] |  |  |  | > 25000 | 460 | 350
24 | COC(=O)NC[C@@H](C)NS(=O)(=O)N1CC[C@H](C(=O)Nc2ccc(F)c(C)c2)C1 [Compound 51, methyl N-[(2R)-2-[[(3S)-3-[(4-fluoro-3-methyl-phenyl)carbamoyl]pyrrolidin-1-yl]sulfonylamino]propyl]carbamate] |  |  |  | > 25000 | 57 | 150
